Data from patent publication US10711004B2 (Genentech, Inc., priority 2018, dated 2020).
Read-outs that look alike come from different tables or passages of the source.

Molecular target: human TRPA1 channel (Homo sapiens (Human), UniProt O75762)
Assay: hTRPA1 CHO Ca2+ FLIPR Tetra assay, block of cinnamaldehyde induced calcium influx
Type: cell-based
Conditions: CHO cells expressing TRPA1, Hill coefficient fixed to 1.5
Outline: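 IC50 values come from fixed-Hill fits of inhibition of cinnamaldehyde-induced (about EC50 level) calcium influx measured by FLIPR Tetra. Before agonist, TRPA1-expressing CHO cells loaded with calcium indicator were exposed to compound for 10 or 90 min at room temperature in HEPES-buffered HBSS, pH 7.4, with 0.02% BSA.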

[1] = read-out: hTRPA1 IC50 (10 min), compounds incubated 10 minutes at room temperature before cinnamaldehyde agonist
[2] = read-out: hTRPA1 IC50 (90 min), compounds incubated 90 minutes at room temperature before cinnamaldehyde agonist

human TRPA1 channel, sequence (O75762 whole entry): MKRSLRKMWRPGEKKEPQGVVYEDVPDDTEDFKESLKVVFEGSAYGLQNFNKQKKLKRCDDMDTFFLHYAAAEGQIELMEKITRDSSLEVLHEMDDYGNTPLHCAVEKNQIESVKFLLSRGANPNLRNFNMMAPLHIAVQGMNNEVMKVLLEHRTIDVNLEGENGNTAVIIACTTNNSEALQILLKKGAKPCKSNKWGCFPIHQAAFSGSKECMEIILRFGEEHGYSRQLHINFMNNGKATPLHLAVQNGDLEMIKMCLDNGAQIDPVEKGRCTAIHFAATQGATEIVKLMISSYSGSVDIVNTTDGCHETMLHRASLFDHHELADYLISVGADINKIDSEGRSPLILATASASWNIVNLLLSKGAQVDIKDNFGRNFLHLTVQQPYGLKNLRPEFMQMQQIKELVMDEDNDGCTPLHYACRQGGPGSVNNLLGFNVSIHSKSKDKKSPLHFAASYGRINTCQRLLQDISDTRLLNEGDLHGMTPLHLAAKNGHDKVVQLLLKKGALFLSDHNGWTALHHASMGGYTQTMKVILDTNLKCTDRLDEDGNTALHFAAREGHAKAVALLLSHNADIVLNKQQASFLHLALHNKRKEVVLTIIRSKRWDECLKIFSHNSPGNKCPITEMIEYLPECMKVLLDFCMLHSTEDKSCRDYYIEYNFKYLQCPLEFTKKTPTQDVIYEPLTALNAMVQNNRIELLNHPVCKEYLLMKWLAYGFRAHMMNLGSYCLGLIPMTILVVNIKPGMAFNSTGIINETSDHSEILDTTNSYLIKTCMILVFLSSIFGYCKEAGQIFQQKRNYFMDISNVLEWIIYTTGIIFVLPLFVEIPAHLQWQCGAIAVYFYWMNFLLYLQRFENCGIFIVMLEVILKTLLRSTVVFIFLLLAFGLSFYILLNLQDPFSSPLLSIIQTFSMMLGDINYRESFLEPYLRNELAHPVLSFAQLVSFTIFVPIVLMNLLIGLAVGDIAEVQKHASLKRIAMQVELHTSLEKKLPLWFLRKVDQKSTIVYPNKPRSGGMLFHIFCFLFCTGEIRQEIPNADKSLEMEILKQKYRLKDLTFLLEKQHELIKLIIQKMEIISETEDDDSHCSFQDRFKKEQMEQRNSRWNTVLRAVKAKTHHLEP

| IC50 [1] | IC50 [2] | IC50 (read-out: hTRPA1 IC50 (10 min), compounds incubated 10 minutes at room temperature before cinnamaldehyde agonist, listed as 282) | IC50 (read-out: hTRPA1 IC50 (90 min), compounds incubated 90 minutes at room temperature before cinnamaldehyde agonist, listed as 282) | Structure (SMILES) |
| --- | --- | --- | --- | --- |
| 9.73 nM | 4.3 nM |  |  | Nc1ccc2c(=O)n(Cc3nc([C@H]4[C@@H]5CN(c6cccc(F)c6)C[C@@H]54)no3)cnc2n1 [Example Compound 261, 7-amino-3-[[3-[(1R,5S)-3-(3-fluorophenyl)-3-azabicyclo[3.1.0]hexan-6-yl]-1,2,4-oxadiazol-5-yl]methyl]pyrido[2,3-d]pyrimidin-4-one] |
| 9.35 nM | 4.9 nM |  |  | Cn1cnc2ncn(Cc3nc([C@@H]4[C@H]5C=C(c6ccc(F)c(F)c6)C[C@H]54)no3)c(=O)c21 [Example Compound 94, 1-((3-((1R,5R,6S)-3-(3,4-difluorophenyl)bicyclo[3.1.0]hex-2-en-6-yl)-1,2,4-oxadiazol-5-yl)methyl)-7-methyl-1,7-dihydro-6H-purin-6-one] |
| 196 nM |  |  |  | Cn1cnc2ncn(Cc3nc([C@H]4C[C@H](c5ccc(OC(F)(F)F)cc5)C4)no3)c(=O)c21 |
| 363 nM | 89 nM |  |  | Cn1cnc2ncn(Cc3nc([C@H]4[C@@H]5CN(c6cncc(F)c6)C[C@@H]54)no3)c(=O)c21 [Example Compound 144, 1-((3-((1R,5S,6r)-3-(5-fluoropyridin-3-yl)-3-azabicyclo[3.1.0]hexan-6-yl)-1,2,4-oxadiazol-5-yl)methyl)-7-methyl-1,7-dihydro-6H-purin-6-one] |
| 15.1 nM |  |  |  | Cc1ccnc2ncn(Cc3nc([C@H]4C[C@H](c5ccc(F)cc5)C4)no3)c(=O)c12 [Example Compound 164, 3-((3-((1r,3r)-3-(4-fluorophenyl)cyclobutyl)-1,2,4-oxadiazol-5-yl)methyl)-5-methylpyrido[2,3-d]pyrimidin-4(3H)-one] |
| 15.1 nM | 6.3 nM |  |  | Cn1cnc2ncn(Cc3nc([C@H]4[C@@H]5CN(c6cc(F)ccc6F)C[C@@H]54)no3)c(=O)c21 [Example Compound 99, 1-((3-((1R,5S,6r)-3-(2,5-difluorophenyl)-3-azabicyclo[3.1.0]hexan-6-yl)-1,2,4-oxadiazol-5-yl)methyl)-7-methyl-1,7-dihydro-6H-purin-6-one] |
| 68.2 nM |  |  |  | Cn1cnc2ncn(Cc3nc([C@H]4C[C@H](c5cccc(C#N)c5)C4)no3)c(=O)c21 [Example Compound 189, 3-((1r,3r)-3-(5-((7-methyl-6-oxo-6,7-dihydro-1H-purin-1-yl)methyl)-1,2,4-oxadiazol-3-yl)cyclobutyl)benzonitrile] |
| 58.7 nM | 41 nM |  |  | O=c1c2cccnc2cnn1Cc1nc([C@H]2[C@@H]3CN(c4ccnc(F)c4)C[C@@H]32)no1 [Example Compound 152, 6-((3-((1R,5S,6r)-3-(2-fluoropyridin-4-yl)-3-azabicyclo[3.1.0]hexan-6-yl)-1,2,4-oxadiazol-5-yl)methyl)pyrido[2,3-d]pyridazin-5(6H)-one] |
| 58.3 nM | 35 nM |  |  | O=c1c2ccc(Cl)nc2ncn1Cc1nc([C@H]2[C@@H]3CN(c4cccc(F)c4)C[C@@H]32)no1 [Example Compound 272, 7-chloro-3-[[3-[(1R,5S)-3-(3-fluorophenyl)-3-azabicyclo[3.1.0]hexan-6-yl]-1,2,4-oxadiazol-5-yl]methyl]pyrido[2,3-d]pyrimidin-4-one] |
| 290 nM |  |  |  | Cc1ccnc2ncn(Cc3nc([C@H]4[C@@H]5CN(c6ccc(Cl)cc6)C[C@@H]54)no3)c(=O)c12 [Example Compound 29, 5-methyl-3-[[3-[(1R,5S,6r)-3-(4-chlorophenyl)-3-azabicyclo[3.1.0]hexan-6-yl]-1,2,4-oxadiazol-5-yl]methyl]pyrido[2,3-d]pyrimidin-4-one] |
| 91.5 nM | 31 nM |  |  | Cn1cnc2ncn(Cc3nc([C@H]4[C@@H]5C=C(c6cc(Cl)ccn6)C[C@@H]54)no3)c(=O)c21 [Example Compound 160, 1-((3-((1S,5S,6R)-3-(4-chloropyridin-2-yl)bicyclo[3.1.0]hex-2-en-6-yl)-1,2,4-oxadiazol-5-yl)methyl)-7-methyl-1,7-dihydro-6H-purin-6-one] |
| 352 nM |  |  |  | Cn1cnc2c(C#N)nn(Cc3nc([C@H]4[C@@H]5CN(c6ccccc6)C[C@@H]54)no3)c2c1=O [Example Compound 22, 6-methyl-7-oxo-1-[[3-[(1R,5S,6s)-3-phenyl-3-azabicyclo[3.1.0]hexan-6-yl]-1,2,4-oxadiazol-5-yl]methyl]pyrazolo[4,3-d]pyrimidine-3-carbonitrile] |
| 464 nM |  |  |  | Cn1cnc2ncn(Cc3nc([C@H]4[C@@H]5CN(c6ccc(Cl)nc6)C[C@@H]54)no3)c(=O)c21 [Example Compound 34, 7-methyl-1-[[3-[(1R,5S,6r)-3-[6-chloro-3-pyridyl]-3-azabicyclo[3.1.0]hexan-6-yl]-1,2,4-oxadiazol-5-yl]methyl]purin-6-one] |
|  |  | 16.9 nM | 3.1 nM | Cn1cnc2ncn(Cc3nc([C@@H]4[C@H]5C=C(c6cccc(F)c6F)C[C@H]54)no3)c(=O)c21 [Example Compound 282, 7-methyl-1-[[3-[(1R,5R,6S)-3-(2,3-difluorophenyl)-6-bicyclo[3.1.0]hex-2-enyl]-1,2,4-oxadiazol-5-yl]methyl]purin-6-one] |
| 116 nM | 78 nM |  |  | Cn1cnc2ncn(Cc3nc([C@H]4[C@@H]5C=C(c6ccc(F)cn6)C[C@@H]54)no3)c(=O)c21 [Example Compound 111, 1-((3-((1S,5S,6R)-3-(5-fluoropyridin-2-yl)bicyclo[3.1.0]hex-2-en-6-yl)-1,2,4-oxadiazol-5-yl)methyl)-7-methyl-1,7-dihydro-6H-purin-6-one] |
| 51.3 nM |  |  |  | Cc1ccnc2ncn(Cc3nc([C@H]4C[C@H](c5ccc(OC(F)F)cc5)C4)no3)c(=O)c12 |
| 223 nM | 130 nM |  |  | Cn1cnc2ncn(Cc3nc([C@H]4[C@@H]5CN(c6ccccn6)C[C@@H]54)no3)c(=O)c21 [Example Compound 228, 7-methyl-1-((3-((1R,5S,6r)-3-(pyridin-2-yl)-3-azabicyclo[3.1.0]hexan-6-yl)-1,2,4-oxadiazol-5-yl)methyl)-1,7-dihydro-6H-purin-6-one] |
| 129 nM | 85 nM |  |  | Cn1cnc2ncn(Cc3nc([C@@H]4[C@H]5C=C(c6ccncc6)C[C@H]54)no3)c(=O)c21 [Example Compound 127, 7-methyl-1-((3-((1R,5R,6S)-3-(pyridin-4-yl)bicyclo[3.1.0]hex-2-en-6-yl)-1,2,4-oxadiazol-5-yl)methyl)-1,7-dihydro-6H-purin-6-one] |
| 190 nM |  |  |  | O=c1c2ccncc2ncn1Cc1nc([C@H]2C[C@](F)(c3ccc(Cl)cc3)C2)no1 |
| 149 nM |  |  |  | Cn1cnc2ncn(Cc3nc([C@@H]4CC[C@@H](c5ccccc5)C4)no3)c(=O)c21 |
| 20.2 nM |  |  |  | O=c1c2cccnc2ncn1Cc1nc([C@H]2C[C@](F)(c3ccc(Cl)cc3)C2)no1 |
| 166 nM |  |  |  | Cn1cnc2ncn(Cc3nc([C@H]4[C@@H]5CN(c6ccc7ncccc7c6)C[C@@H]54)no3)c(=O)c21 |
| 253 nM | 160 nM |  |  | Cn1nnc2ncn(Cc3nc([C@H]4C[C@](F)(c5ccc(Cl)cc5)C4)no3)c(=O)c21 [Example Compound 149, 6-((3-((1s,3s)-3-(4-chlorophenyl)-3-fluorocyclobutyl)-1,2,4-oxadiazol-5-yl)methyl)-1-methyl-1,6-dihydro-7H-[1,2,3]triazolo[4,5-d]pyrimidin-7-one] |

| Structure (SMILES) | IC50 [1] | IC50 [2] | IC50 (read-out: hTRPA1 IC50 (10 min), compounds incubated 10 minutes at room temperature before cinnamaldehyde agonist, listed as 282) | IC50 (read-out: hTRPA1 IC50 (90 min), compounds incubated 90 minutes at room temperature before cinnamaldehyde agonist, listed as 282) |
| --- | --- | --- | --- | --- |
| Cn1cnc2ncn(Cc3nc([C@H]4[C@@H]5CN(c6ccc(Cl)cc6)C[C@@H]54)no3)c(=O)c21 [Example Compound 25, 7-methyl-1-[[3-[(1R,5S,6 r)-3-(4-chlorophenyl)-3-azabicyclo[3.1.0]hexan-6-yl]-1,2,4-oxadiazol-5-yl]methyl]purin-6-one] | 20.4 nM |  |  |  |
